Results taken from article PMC9649518, “Knockout of ABC transporters by CRISPR/Cas9 contributes to reliable and accurate transporter substrate identification for drug discovery” (Frontiers in Pharmacology, 2022).
Where two headings read alike, the source gives them in different places. Blank lines part the entries; values can stand above or below the molecule they belong to.

What was measured:
[1] = Bidirectional transport assay across MRP2 KO Caco-2 monolayers; conditions: human, pH 7.4
[2] = Bidirectional transport assay across BCRP KO Caco-2 monolayers; conditions: human; for Papp A→B at 1 h, 5 μM / Papp B→A at 1 h, 5 μM: pH 7.4
[3] = Bidirectional transport assay across P-gp KO Caco-2 monolayers; conditions: human, pH 7.4
Caco-2 WT cells = test: Bidirectional transport assay across Caco-2 WT monolayers; conditions: WT Caco-2, 5 μM substrate, n = 3; for Papp A-to-B / Papp B-to-A: 1 h, 37°C, HBSS pH 7.4; for Efflux ratio: Papp(B-to-A)/Papp(A-to-B)
[4] = as above; conditions: human
[5] = Bidirectional transport assay across P-gp/BCRP double KO Caco-2 monolayers; conditions: human, pH 7.4
[6] = Bidirectional transport assay, Caco^BCRP−/− and Caco^MRP2−/− cells taken together; assay type: in vitro ADME; conditions: human
Procedure: (§1) The medium was replaced every second day.
(§2) All these studies were conducted by following similar procedures. […] Then, HBSS was aspirated from both sides.
(§3) The flow rate was 0.3 mL/min.

[7] = tested on: Caco^MRP2−/−BCRP−/− cells; test: Bidirectional transport assay across MRP2/BCRP double KO Caco-2 monolayers; conditions: Caco^MRP2−/−BCRP−/−, 5 μM substrate, n = 3
[8] = as above; conditions: human; for Papp A→B at 1 h, 5 μM: pH 7.4, Papp A-to-B, Caco^MRP2−/−BCRP−/−, 5 μM substrate, 37°C, HBSS pH 7.4, n = 3
[9] = Bidirectional transport assay across P-gp/MRP2 double KO Caco-2 monolayers; conditions: human, pH 7.4
[10] = tested on: MRP2 single- and double-KO Caco-2 cell lines; test: Bidirectional transport assay, MRP2 single- and double-KO cell lines taken together; conditions: 5 μM substrate
Caco^MRP2−/− cells = test: Bidirectional transport assay across MRP2 KO Caco-2 monolayers; conditions: Caco^MRP2−/−, 5 μM substrate, n = 3
Caco^BCRP−/− cells = test: Bidirectional transport assay across BCRP KO Caco-2 monolayers; conditions: Caco^BCRP−/−, 5 μM substrate, n = 3
Caco^Pgp−/− cells = test: Bidirectional transport assay across P-gp KO Caco-2 monolayers; conditions: Caco^Pgp−/−, 5 μM substrate, n = 3
Caco^Pgp−/−BCRP−/− cells = test: Bidirectional transport assay across P-gp/BCRP double KO Caco-2 monolayers; conditions: Caco^Pgp−/−BCRP−/−, 5 μM substrate, n = 3
Caco^Pgp−/−MRP2−/− cells = test: Bidirectional transport assay across P-gp/MRP2 double KO Caco-2 monolayers; conditions: Caco^Pgp−/−MRP2−/−, 5 μM substrate, n = 3
[11] = tested on: BCRP single- and double-KO Caco-2 cell lines; test: Bidirectional transport assay, BCRP single- and double-KO cell lines taken together; conditions: 5 μM substrate
[12] = Bidirectional transport assay, P-gp single- and double-KO cells taken together; assay type: in vitro ADME; conditions: human, pH 7.4, 5 μM substrate
Procedure: as §1, §2, §3

[13] = tested on: BCRP, MRP2, and MRP2/BCRP knock-out cell lines mediated by ZFN; set-up: method as in Sampson et al., 2015; conditions: ref Sampson et al., 2015, cited from earlier work

Compound: CC(C)CN(C[C@@H](O)[C@H](Cc1ccccc1)NC(=O)O[C@H]1CO[C@H]2OCC[C@H]21)S(=O)(=O)c1ccc(N)cc1 [Darunavir]
- Papp A→B at 1 h, 5 μM [1]: 1.9 ± 0.14 ×10⁻⁶ cm/s
- Papp B→A at 1 h, 5 μM [1]: 29.84 ± 0.24 ×10⁻⁶ cm/s
- Papp A→B at 1 h, 5 μM [2]: 1.75 ± 0.13 ×10⁻⁶ cm/s
- Papp B→A at 1 h, 5 μM [2]: 34.32 ± 0.19 ×10⁻⁶ cm/s
- Papp A→B at 1 h, 5 μM [3]: 15.1 ± 0.68 ×10⁻⁶ cm/s
- Papp B→A at 1 h, 5 μM [3]: 13.6 ± 0.8 ×10⁻⁶ cm/s
- Papp A-to-B (Caco-2 WT cells): 2.65 ± 0.22 ×10^−6cm/s
- Papp B-to-A (Caco-2 WT cells): 26.59 ± 2.06 ×10^−6cm/s
- Papp A→B at 1 h, 5 μM ([4]; Caco-2, pH 7.4, Papp A-to-B, WT Caco-2, 5 μM substrate, 1 h, 37°C, HBSS pH 7.4, n = 3): 2.6 ×10⁻⁶ cm/s
- Papp B→A at 1 h, 5 μM ([4]; Caco-2, pH 7.4, Papp B-to-A, WT Caco-2, 5 μM substrate, 1 h, 37°C, HBSS pH 7.4, n = 3): 26.6 ×10⁻⁶ cm/s
- Papp A→B at 1 h, 5 μM [5]: 12.6 ± 1.31 ×10⁻⁶ cm/s
- Papp B→A at 1 h, 5 μM [5]: 11.5 ± 0.38 ×10⁻⁶ cm/s
- Papp A→B at 1 h, 5 μM ([6]; pH 7.4, read-out: Papp (A-to-B) permeability): 1.7 to 1.8 ×10⁻⁶ cm/s
- Papp B→A at 1 h, 5 μM ([6]; pH 7.4, read-out: Papp (B-to-A) permeability): 29.8 to 34.3 ×10⁻⁶ cm/s
- Papp A-to-B ([7]; 1 h, 37°C, HBSS pH 7.4): 4.43 ± 0.63 ×10^−6cm/s
- Papp B→A at 1 h, 5 μM ([8]; pH 7.4): 27 ± 0.79 ×10⁻⁶ cm/s
- Papp A→B at 1 h, 5 μM [8]: 4.4 ×10⁻⁶ cm/s
- Papp A→B at 1 h, 5 μM [9]: 10.1 ± 0.44 ×10⁻⁶ cm/s
- Papp B→A at 1 h, 5 μM [9]: 10.4 ± 0.2 ×10⁻⁶ cm/s

- Efflux ratio compared with WT [10]: reduced significantly
- Papp A-to-B (Caco^MRP2−/− cells; 1 h, 37°C, HBSS pH 7.4): 2.91 ± 0.32 ×10^−6cm/s
- Papp B-to-A (Caco^MRP2−/− cells; 1 h, 37°C, HBSS pH 7.4): 15.32 ± 3.10 ×10^−6cm/s
- Efflux ratio (Caco^MRP2−/− cells): 5.24 ± 0.59
- Papp A-to-B (Caco^BCRP−/− cells; 1 h, 37°C, HBSS pH 7.4): 1.15 ± 0.11 ×10^−6cm/s
- Papp B-to-A (Caco^BCRP−/− cells; 1 h, 37°C, HBSS pH 7.4): 1.58 ± 0.08 ×10^−6cm/s
- Efflux ratio (Caco^BCRP−/− cells): 1.36 ± 0.18
- Papp A-to-B (Caco^Pgp−/− cells; 1 h, 37°C, HBSS pH 7.4): 1.53 ± 0.24 ×10^−6cm/s
- Papp B-to-A (Caco^Pgp−/− cells; 1 h, 37°C, HBSS pH 7.4): 22.48 ± 1.01 ×10^−6cm/s
- Efflux ratio (Caco^Pgp−/− cells): 14.90 ± 1.63
- Papp A-to-B (Caco-2 WT cells): 0.67 ± 0.12 ×10^−6cm/s
- Papp B-to-A (Caco-2 WT cells): 10.87 ± 0.20 ×10^−6cm/s
- Efflux ratio (Caco-2 WT cells): 16.65 ± 2.90
- Efflux ratio (Caco-2 WT cells; listed as E3S): 16.6
- Papp A-to-B (Caco^Pgp−/−BCRP−/− cells; 1 h, 37°C, HBSS pH 7.4): 1.88 ± 0.02 ×10^−6cm/s
- Papp B-to-A (Caco^Pgp−/−BCRP−/− cells; 1 h, 37°C, HBSS pH 7.4): 1.54 ± 0.30 ×10^−6cm/s
- Efflux ratio (Caco^Pgp−/−BCRP−/− cells): 0.820 ± 0.15
- Papp A-to-B ([7]; 1 h, 37°C, HBSS pH 7.4): 0.97 ± 0.04 ×10^−6cm/s
- Papp B-to-A ([7]; 1 h, 37°C, HBSS pH 7.4): 0.92 ± 0.49 ×10^−6cm/s
- Efflux ratio [7]: 0.96 ± 0.51
- Papp A-to-B (Caco^Pgp−/−MRP2−/− cells; 1 h, 37°C, HBSS pH 7.4): 3.23 ± 0.08 ×10^−6cm/s
- Papp B-to-A (Caco^Pgp−/−MRP2−/− cells; 1 h, 37°C, HBSS pH 7.4): 25.34 ± 2.06 ×10^−6cm/s
- Efflux ratio (Caco^Pgp−/−MRP2−/− cells): 7.830 ± 0.46
- Efflux ratio [11]: 0.8–1.3
Compound: C[C@]12CC[C@@H]3c4ccc(OS(=O)(=O)O)cc4CC[C@H]3[C@@H]1CCC2=O [Estrone 3-Sulfate, estrone 3-sulfate]

- Papp A→B at 1 h, 5 μM [1]: 2.05 ± 0.51 ×10⁻⁶ cm/s
- Papp B→A at 1 h, 5 μM [1]: 17.6 ± 1.13 ×10⁻⁶ cm/s
- efflux ratio at 1 h, 5 μM [1]: 9.08 ± 2.87
- Papp A→B at 1 h, 5 μM [2]: 1.66 ± 0.42 ×10⁻⁶ cm/s
- Papp B→A at 1 h, 5 μM [2]: 14.8 ± 1.85 ×10⁻⁶ cm/s
- efflux ratio at 1 h, 5 μM ([2]; pH 7.4, Efflux ratio, Caco^BCRP−/−, 5 μM substrate, n = 3): 9.11 ± 1.66
- Papp A→B at 1 h, 5 μM [3]: 1.42 ± 0.2 ×10⁻⁶ cm/s
- Papp B→A at 1 h, 5 μM [3]: 1.67 ± 0.23 ×10⁻⁶ cm/s
- efflux ratio at 1 h, 5 μM [3]: 1.2 ± 0.21
- Efflux ratio (Caco-2 WT cells): 6.38 ± 1.21
- Papp A→B at 1 h, 5 μM ([4]; Caco-2, pH 7.4): 1.48 ± 0.21 ×10⁻⁶ cm/s
- Papp B→A at 1 h, 5 μM ([4]; Caco-2, pH 7.4): 9.33 ± 1.34 ×10⁻⁶ cm/s
- efflux ratio at 1 h, 5 μM ([4]; Caco-2, pH 7.4, Efflux ratio, WT Caco-2, 5 μM substrate, Papp(B-to-A)/Papp(A-to-B), n = 3): 6.4
- Papp A→B at 1 h, 5 μM [5]: 2.42 ± 0.64 ×10⁻⁶ cm/s
- Papp B→A at 1 h, 5 μM [5]: 2.08 ± 0.12 ×10⁻⁶ cm/s
- efflux ratio at 1 h, 5 μM [5]: 0.9 ± 0.21
- Papp B→A at 1 h, 5 μM ([8]; pH 7.4): 17.9 ± 0.63 ×10⁻⁶ cm/s
- efflux ratio at 1 h, 5 μM ([8]; pH 7.4): 9.36 ± 3.17
- Papp A→B at 1 h, 5 μM [8]: 2.03 ± 0.55 ×10⁻⁶ cm/s
- Papp A→B at 1 h, 5 μM [9]: 1.95 ± 0.92 ×10⁻⁶ cm/s
- Papp B→A at 1 h, 5 μM [9]: 1.87 ± 0.4 ×10⁻⁶ cm/s
- efflux ratio at 1 h, 5 μM [9]: 1.05 ± 0.29
- efflux ratio at 1 h, 5 μM [12]: 1
Compound: C[C@H]1O[C@@H](O[C@H]2[C@@H](O)C[C@H](O[C@H]3[C@@H](O)C[C@H](O[C@H]4CC[C@@]5(C)[C@H](CC[C@@H]6[C@@H]5C[C@@H](O)[C@]5(C)[C@@H](C7=CC(=O)OC7)CC[C@]65O)C4)O[C@@H]3C)O[C@@H]2C)C[C@H](O)[C@@H]1O [Digoxin]
- Papp A-to-B ([13]; BCRP, MRP2, and MRP2/BCRP knock-out cell lines mediated by ZFN): ~ 0.25 × 10^–6 cm/s
- Papp A-to-B ([13]; starting value before knock-out ('from')): 0.99 × 10^–6 cm/s
